Drawing on EP3744328B1, “USES OF OXADIAZINE COMPOUNDS” (Valoralia I Más D, S.L.U., priority 2019, dated 2020), this text covers cytotoxicity, IC50 and antioxidant activity for 2 molecules.

Series [1] has as its system THP-1 cell. In words: Cytotoxic activity assay. The format is cell-based. The note with it: 48 h, at the tested concentrations. The protocol:
Cytotoxic activity assays. THP-1 cell was seeded in 96-well plates at a density of 5x10^4 cells/well and NIH/3T3 cells were seeded in 96-well plates at a density of 5x10^3 cells/well both incubated overnight at 37°C in a humidified atmosphere of 5% CO2. Subsequently, cells were treated with test compounds at the indicated concentrations and DMSO as control for 24 h. The test compounds were dissolved in DMSO (stock solution) and diluted with medium to a final DMSO concentration of 0.2%. MTT solution (50 µL, 7 mg/mL in PBS) was added to each well and plates were incubated for an additional 2 h. Next, the medium was removed and 100 µL of DMSO was added to each well to dissolve the formazan crystals that formed. The absorbance was measured at 590 nm using a spectrophotometric ELISA plate reader (SpectraMax® i3, Molecular Devices, CA, USA). Samples were considered nontoxic for the THP-1 and NIH/3T3 cell line when cell viability was ≥90%.
To analyse the cytotoxic activities of the test compound, THP-1 and NIH/3T3 cells were incubated with ODZN for 48 h and cytotoxicity was measured by fluorescence microscopy using an Incuyte microscope. […] (Figure 1).

In series [2] the test system is HIF-1α. As to the kind of experiment: HIF-1α activity assay (NIH/3T3-EPO-luc luciferase reporter). The note with it: 6 h, read-out: inhibition of DFX-induced activation of EPO-Luc (surrogated marker of HIF-1α stabilization) IC50. The series is classed as cell-based. Here is the method:
HIF-1α activity assay. The NIH/3T3-EPO-luc cells have been stably transfected with the plasmid Epo-Luc plasmid. The EPO-Hypoxia Response Element (HRE)-luciferase reporter plasmid contains three copies of the HRE consensus sequence from the promoter of the erythropoietin gene in the pGL3 vector. Cells (1x10^4 for NIH/3T3-EPO-luc) are seeded the day before the assay. The next day, the cells are stimulated either with the compound or Desferrioxamine (DFX) 150 µM as a positive control. After 6 hours of stimulation the cells are lysed in 25 mM Tris-phosphate pH 7.8, 8 mM MgCl2, 1 mM DTT, 1% Triton X-100, and 7% glycerol during 15 min at RT in a horizontal shaker. Luciferase activity is measured using a GloMax 96 microplate luminometer (Promega) following the instructions of the luciferase assay kit (Promega, Madison, WI, USA). The RLU is calculated and the results are expressed as percentage of inhibition induction/inhibition of EPO-luc activity. The experimentsfor each concentration of the test items will be done in triplicate wells.
Background: A reporter such as luciferase makes a cellular process visible.

Series [3] deals with TNF-α. As to the kind of experiment: TNF-α activity assay (ELISA) in THP-1. The series is classed as cell-based. The note with it: Homo sapiens; THP-1 cell; read-out: inhibition of TNF-α production IC50. The protocol: (§1) TNF-α activity assays. The protein expression levels of TNF-α were measured by using an enzyme-linked immunosorbent assay (ELISA) kit according to the manufacturer's instructions (Diaclone). Absorbance was read at 450 nm on a spectrophotometric ELISA plate reader (Anthos 2020, Version 2.0.5, Biochrom Ltd.,UK). The percentage of TNF-α inhibition was calculated from the ratio between the observed TNF-α amount secreted by treated cells (nM) and the baseline secretion of TNF-α (nM). Dexamethasone (Sigma-Aldrich; 50-02-2), was used as positive control (0.01 µM). Results were normalized to the solvent control DMSO (0.1%).

Series [4] is described as follows: Total antioxidant activity assay (DPPH free radical assay, cell-free). Here is the method:
Total antioxidant activity assay. […] DPPH (1,1-Diphenyl-2-[…]) is a purple coloured stable free radical that is reduced to the yellow-coloured diphenylpicrylhydrazine. In a volume of 1 mL of methanol the test samples are mixed with DPPH 0.125 mM. Trolox (200 µM) is included as a positive control. After 30 min of incubation at room temperature in the dark the absorbance measurements are read at 517 nm using Thermo Scientific Genesys 10 uv scanning spectrophotometer. Lower absorbance of the reaction mixtures indicated higher free radical-scavenging activity. DPPH radical-scavenging activity is calculated according to the following formula: %Antioxidant activity = [(Ac−As)/Ac] × 100 [formula]
Where Ac (control) is the absorbance of the control reaction (DPPH) and As (sample) is the absorbance of DPPH and sample.
(In general: Loss of DPPH colour is used to gauge radical scavenging.)

The test system of series [5] is NF-κB. As to the kind of experiment: NF-κB activity assay in THP-1. The format is cell-based. The note with it: Homo sapiens; THP-1 cell; read-out: inhibition of NF-κB production IC50.
Series [6] concerns NF-κB. As to the kind of experiment: NF-κB activity assay (KBF-Luc luciferase reporter) in NIH/3T3. The format is cell-based. The note with it: Mus musculus, NIH3T3; NIH/3T3 cell; read-out: inhibition of NF-κB production IC50. Here is the method:
NF-κB activity assays. The NIH/3T3-KBF-Luc cells has been stably transfected with the plasmid KBF-Luc plasmid, which contains three copies of NF-κB binding site (from major histocompatibility complex promoter), fused to a minimal simian virus 40 promoter driving the luciferase gene. Cells (1x10^4 for NIH/3T3-KBF-Luc) are seeded the day before the assay on 96-well plate. Then the cells are treated with the test substances for 15 min and then stimulated with 30 ng/mL TNF-α. After 6 h, the cells are washed twice with PBS and lysed in 50µl lysis buffer containing 25 mM Tris-phosphate (pH 7.8), 8 mM MgCl2, 1 mM DTT, 1% Triton X-100, and 7% glycerol during 15 min at RT in a horizontal shaker. Luciferase activity is measured using a GloMax 96 microplate luminometer (Promega) following the instructions of the luciferase assay kit (Promega, Madison, WI, USA). The RLU is calculated and the results are expressed as percentage of inhibition of NF-κB activity induced by TNF-α (100% activation). The experiments for each concentration of the test items will be done in triplicate wells.

For series [7], the system named is TNF-α. As to the kind of experiment: TNF-α activity assay (ELISA) in NIH/3T3. The series is classed as cell-based. The note with it: Mus musculus, NIH3T3; NIH/3T3 cell; read-out: inhibition of TNF-α production IC50. The protocol:
as §1
In general terms: In an ELISA, binding on a coated surface is turned into a signal by an enzyme label.

For series [8], the system named is STAT3. As to the kind of experiment: STAT3 activity assay (HeLa-STAT3-luc luciferase reporter). The series is classed as cell-based. The note with it: HeLa-STAT3-Luc cells, IFNγ 25 U/mL, 6 h; read-out: inhibition of IFNγ-induced STAT3 activation IC50. The protocol: STAT3 activity assay. The HeLa-STAT3-luc cells have been stably transfected with the plasmid 4xM67 pTATA TK-Luc. Cells (15 x10^3 cells/mL) are seeded 96-well plate the day before the assay. Then the cells are treated with the compound for 15 min and then stimulated with IFN-γ 25 IU/mL. After 6 h, the cells are washed twice with PBS and lysed in 50 µL lysis buffer containing 25 mM Tris-phosphate (pH 7.8), 8 mM MgCl2, 1 mM DTT, 1% Triton X-100, and 7% glycerol during 15 min at RT in a horizontal shaker. Luciferase activity was measured using GloMax 96 microplate luminometer (Promega) following the instructions of the luciferase assay kit (Promega, Madison, WI, USA). The RLU is calculated and the results are expressed as percentage of inhibition of STAT3 activity induced by IFN-γ (100% activation). The experiments for each concentration of the test items will be done in triplicate wells.

Series [9] concerns the target T1, tyrosinase (Mus musculus, UniProt P11344).
T1 construct: To measure the tyrosinase activity of the cells, the B16-F10 cells treated for 3 days; endogenous in cells; host or cells: B16-F10 melanoma cells
T1 sequence (P11344 19-533): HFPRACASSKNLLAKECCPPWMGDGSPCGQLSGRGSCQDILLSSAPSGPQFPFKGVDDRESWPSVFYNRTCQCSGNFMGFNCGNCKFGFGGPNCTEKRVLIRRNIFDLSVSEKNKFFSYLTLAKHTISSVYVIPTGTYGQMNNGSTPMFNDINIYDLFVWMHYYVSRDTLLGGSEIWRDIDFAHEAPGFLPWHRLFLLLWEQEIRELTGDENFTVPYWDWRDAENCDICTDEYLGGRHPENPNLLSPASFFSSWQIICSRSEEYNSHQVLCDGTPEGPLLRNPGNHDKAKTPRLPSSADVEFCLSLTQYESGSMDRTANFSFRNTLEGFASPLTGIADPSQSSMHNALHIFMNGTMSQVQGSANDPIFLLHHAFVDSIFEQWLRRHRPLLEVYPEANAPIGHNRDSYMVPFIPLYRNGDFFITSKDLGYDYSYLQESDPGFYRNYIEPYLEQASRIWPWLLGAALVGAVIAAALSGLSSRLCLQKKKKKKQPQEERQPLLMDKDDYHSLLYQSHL
As to the kind of experiment: Tyrosinase activity assay in B16-F10 melanoma cells. The format is cell-based. The note with it: 72 h treatment, read-out: inhibits melanin synthesis IC50. Here is the method:
Tyrosinase activity assay. To measure the tyrosinase activity of the cells, the B16-F10 cells treated for 3 days with several doses of the compound is lysed by incubation at 4°C for 30 min in lysis buffer (20 mM sodium phosphate, pH 6.8, 1% Triton X-100, 1 mM PMSF, 1 mM EDTA) containing protease inhibitors cocktail. The lysates are centrifuged at 15,000 × g for 10 min to obtain the supernatant as the source of tyrosinase. The reaction mixture contained 20 mM phosphate buffer, pH 6.8, 1.25 mM L-DOPA (Sigma-Aldrich). After incubation at 37°C for 2 h, dopachrome formation is monitored by measuring absorbance at a wavelength of 475 nm in a microplatereader (TECAN). Kojic acid 2 mM is used as a positive control.

The subject of series [10] is NIH/3T3 cell. In words: Cellular antioxidant activity assay (TBHP-induced ROS production, DCFH-DA probe) in NIH/3T3. The format is cell-based. The note with it: Mus musculus, NIH3T3, intracellular ROS induced by TBHP.
In series [11] the test system is THP-1 cell. In words: Cellular antioxidant activity assay (TBHP-induced ROS production, DCFH-DA probe) in THP-1. The note with it: Homo sapiens, intracellular ROS induced by TBHP. The series is classed as cell-based. Here is the method: Cellular antioxidant activity assays. The intracellular accumulation of ROS is detected by fluorimetry using 2',7'-[…] (DCFH-DA). The THP-1 cell (1x10^5 cells/well) are cultured in a 96-well black plate in DMEM supplemented with 10% FBS; culture medium is renewed when the cells reached 80% confluence. For inhibition, the cells are pre-incubated with the test substances for 30 min and treated with 0,4 mM Tert-butylhydroperoxide (TBHP). After 3 h the cells are incubated with 10 µM DCFH-DA in the culture medium at 37°C for 30 min.
The acetate groups on DCFH-DA are removed by an intracellular esterase, trapping the probe inside the THP-1 cell. Then, the cells are washed with PBS at 37°C and the production of ROS measured by changes in fluorescence due to the intracellular accumulation of DCF caused by the oxidation of DCFH. Intracellular ROS, as indicated by DCF fluorescence is detected using the Incucyte FLR software; the data are analyzed by the total green object integrated intensity (GCU x µm^2 x well) of the imaging system IncuCyte HD (Essen BioScience).

Usually IC50 stands for the concentration needed to halve the response being measured. Regarding `CCCCCC1=NN(C(=O)CCO)OC(CCCCC)C1` (stereo not drawn) [ODZN, 1-(4,6-dipentyl-5,6-dihydro-2H-1,2,3-oxadiazin-2-yl)-3-hydroxypropan-1-one], the cytotoxicity result in [1] was “no cytotoxicity”. Moreover, the half-maximal inhibitory concentration (IC50) in series [2] came out at 9.59 nM; in [3], 14.8 nM; in series [4] (cell-free assay (DPPH)), 9.77 nM; in series [5] it was 56.3 nM; in [6], 31.8 nM; in [7], 8.21 nM. Further, the concentration for half-maximal inhibition (IC50) in series [8] amounted to 1.57 nM; in series [9], 16.9 nM; in series [10], 3.33 nM; in [11], 10.6 nM.
`Cc1c(C)c2c(c(C)c1O)CCC(C)(C(=O)O)O2` (stereo not drawn) [Trolox, reference compound] came in with an antioxidant activity in series [4] (DPPH free radical assay, standard, 200 µM positive control) of 92.08%.
